Tested on: cutaneous anaphylaxis
Assay: Passive cutaneous anaphylaxis (PCA) in rats
Assay type: in vivo, male rats
Conditions: Rattus norvegicus
Excerpt: Passive cutaneous anaphylaxis (PCA) in rats
Cutaneous anaphylaxis was induced in groups of 7 male rats weighing 180 to 220 grams by intradermal (ID) sensitization with antiserum followed, three days later, by systemic challenge with antigen. Evans blue dye injected with the antigen is used as a marker to assess the severity of the local response. Anti-allergic drugs inhibit this reaction and this method has been described by OVARY (1962) in "Passive Cutaneous Anaphylaxis in Allergology" 258-367 Ed. Brown; Pergamon Press.
Preparation of Antigen (or Sensitization)
(Alum-precipitated ovalbumen)
1. Wash 120 grams of Al(OH)3 gel in 140 ml of saline (use of a macerator facilitates mixing).
2. Centrifuge at 3,000 r.p.m. for about 10 minutes.
3. Resuspend the precipitate with 300 ml of albumen egg powder (1.3 mg/ml) in saline and allow to stand for 30 minutes.
4. Centrifuge at 3,000 r.p.m. for 10 minutes.
5. Weigh the wet precipitate and to each gram weight add 1 ml of saline. Store in frigerator.
(Quantity sufficient for 60 rats for a 3 day sensitization program).
Preparation of Antiserum (i.e. anti-ovalbumen)
1. 1 ml of the alum-precipitated ovalbumen was injected subcutaneously into 180-200 gram rats on days 0,2 and 4.
2. The rats were bled on day 14 either by cardiac puncture or via the dorsal abdominal aorta.
3. Equal quantities of serum from each animal were pooled and thoroughly mixed.
4. 2 ml of aliquots were stored at -20° C. in plastic tubes.
The antiserum for sensitization was diluted so that an ID injection of 0.1 ml into control animals gave an average score of a single spot of between 2.0-3.5 using a 5 point scoring system (0,1,2,3,4)
(A) SENSITIZATION: Rats are anaesthetized with Nembutal (40-60 mg/kg i.p.) and then sensitized by four ID injections (0.1 ml each) on their shaved backs. The animals were then left for a period of three days to develop sensitization.
(B) […]: The sensitized rats were anaesthetised and challenged orally or intravenously via the superficial penile vein with 1 ml of an antigen/Evans blue mixture (1 mg albumen egg powder in 0.5 ml saline plus 0.5 ml of 1% Evans blue). The injections were speeded up by using an automatic 1 ml self filling glass syringe. The "challenged" rats were killed after 30 minutes, (usually pithed) and their skin on the dorsal surface was removed. The degree and area of blueing, proportional to the anaphylactic reaction, was assessed on a five point scoring system.
1. Total scores for sites 1,2,3 and 4=X
2. Mean value of X for each group=X
3. X t=X for test group; X c=X for control group
4. % inhibition=(X c-X t)/X c×100/1

O=C(O)c1cn2c(n1)c(=O)[nH]c1ccccc12 [Example 2, 4,5-dihydro-4-oxoimidazo-[1,2-a]-quinoxaline-2-carboxylic acid]
ED50 (iv): 0.16 mg/kg | ED50 (po): 2 mg/kg

Cn1c(=O)c2nc(C(=O)O)cn2c2ccccc21 [Example 4, 4,5-dihydro-5-methyl-4-oxoimidazo-[1,2-a]-quinoxaline-2-carboxylic acid]
ED50 (iv): 0.031 mg/kg | ED50 (po): 1.28 mg/kg

CCOC(=O)c1cn2c(n1)c(=O)n(CC)c1ccccc12 [Example 5, Ethyl 4,5-dihydro-5-ethyl-4-oxoimidazo-[1,2-a]-quinoxaline-2-carboxylate]
ED50 (po): 0.16 mg/kg

CCn1c(=O)c2nc(C(=O)O)cn2c2ccccc21 [Example 6, 4,5-dihydro-5-ethyl-4-oxoimidazo-[1,2-a]-quinoxaline-2-carboxylic acid]
ED50 (iv): 0.01 mg/kg | ED50 (po): 0.45 mg/kg

CCCn1c(=O)c2nc(C(=O)O)cn2c2ccccc21 [Example 8, 4,5-dihydro-5-propyl-4-oxoimidazo-[1,2-a]-quinoxaline-2-carboxylic acid]
ED50 (iv): 0.01 mg/kg | ED50 (po): 0.24 mg/kg

CCCCn1c(=O)c2nc(C(=O)O)cn2c2ccccc21 [Example 10, 4,5-dihydro-5-butyl-4-oxoimidazo-[1,2-a]-quinoxaline-2-carboxylic acid]
ED50 (iv): 0.023 mg/kg | ED50 (po): 0.59 mg/kg
